Target: T1, human GABA receptor (subunits α1β3γ2) (Homo sapiens, UniProt P14867+P18507+P28472)
T1 construct: expressed in transfected cells; host or cells: HEK293
Test: Manual whole-cell patch-clamp recording of GABA receptor-mediated Cl- current in HEK293 cells
Type: cell-based
Details: for mode of action at the human GABAA receptor: human GABAA receptor α1β3γ2, electrophysiological recordings; for effect on human GABA receptor-mediated Cl- current: human α1β3γ2 receptor expressed in HEK293 cells, manual whole-cell patch-clamp
Procedure: All the compounds of the present invention were tested and validated using electrophysiological recordings on the human GABAA receptor comprising of the following subunits α1β3γ2. The compounds of the present invention are used in the preparation of a neuroactive pharmaceutical composition, in improving sperm motility or in labeling of biomolecules.
The human GABA receptor (subunits α1β3γ2) was expressed in HEK293 cells in manual whole-cell patch-clamp settings.
These compounds of the present invention are experimentally shown to specifically bind to the GABAA receptor. Therefore, they are capable of activating, inhibiting or modulating the GABAA receptor. These compounds were derived in-silico and tested in-vitro in cell cultures. […] The human GABA receptor (subunits α1β3γ2) used in these experiments was expressed in the HEK293 cells in manual whole-cell patch-clamp settings.

T1 sequence (P14867 28-456): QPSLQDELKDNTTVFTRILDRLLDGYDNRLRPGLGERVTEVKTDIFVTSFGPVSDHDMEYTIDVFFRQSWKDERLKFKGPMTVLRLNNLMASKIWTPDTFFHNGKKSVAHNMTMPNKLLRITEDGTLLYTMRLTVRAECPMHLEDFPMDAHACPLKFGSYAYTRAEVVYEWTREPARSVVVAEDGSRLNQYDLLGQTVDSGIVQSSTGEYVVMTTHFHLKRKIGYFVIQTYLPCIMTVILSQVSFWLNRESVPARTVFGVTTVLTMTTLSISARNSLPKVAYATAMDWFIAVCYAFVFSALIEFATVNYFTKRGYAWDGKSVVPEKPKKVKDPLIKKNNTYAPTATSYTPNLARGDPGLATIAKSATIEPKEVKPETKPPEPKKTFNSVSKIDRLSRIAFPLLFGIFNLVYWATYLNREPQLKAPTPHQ
T1 sequence (P28472 26-473): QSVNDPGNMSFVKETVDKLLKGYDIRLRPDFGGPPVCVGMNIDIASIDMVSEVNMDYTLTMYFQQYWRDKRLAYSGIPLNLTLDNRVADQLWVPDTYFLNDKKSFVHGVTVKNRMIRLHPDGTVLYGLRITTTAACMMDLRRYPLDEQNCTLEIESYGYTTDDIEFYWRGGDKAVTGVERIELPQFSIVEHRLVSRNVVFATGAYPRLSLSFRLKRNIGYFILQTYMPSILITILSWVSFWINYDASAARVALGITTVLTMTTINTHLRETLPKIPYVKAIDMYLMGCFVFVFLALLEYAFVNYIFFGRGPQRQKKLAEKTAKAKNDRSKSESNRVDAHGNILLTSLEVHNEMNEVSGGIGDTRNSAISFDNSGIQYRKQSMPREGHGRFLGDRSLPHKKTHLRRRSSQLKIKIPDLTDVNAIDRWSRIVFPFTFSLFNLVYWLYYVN
T1 sequence (P18507 40-475): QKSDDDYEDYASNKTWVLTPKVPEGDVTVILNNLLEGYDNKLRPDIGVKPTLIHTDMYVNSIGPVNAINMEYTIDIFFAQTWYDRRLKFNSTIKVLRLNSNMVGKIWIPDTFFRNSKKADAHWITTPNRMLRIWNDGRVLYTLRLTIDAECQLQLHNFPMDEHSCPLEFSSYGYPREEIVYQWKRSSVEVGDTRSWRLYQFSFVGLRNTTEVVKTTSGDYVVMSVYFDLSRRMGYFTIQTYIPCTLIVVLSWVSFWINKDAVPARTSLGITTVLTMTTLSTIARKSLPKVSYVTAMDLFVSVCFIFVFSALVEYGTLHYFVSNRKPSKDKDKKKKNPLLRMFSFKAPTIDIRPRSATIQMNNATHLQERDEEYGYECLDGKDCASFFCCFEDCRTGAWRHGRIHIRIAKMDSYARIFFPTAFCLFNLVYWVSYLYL

CC(C)CC(NC(=O)c1ccc(S(N)(=O)=O)o1)c1cccs1 (stereo not shown) [Compound 1]
mode of action at the human GABAA receptor: positive allosteric modulation
effect on human GABA receptor-mediated Cl- current: selective potentiation

O=C(O)CC1(c2ccc(Br)cc2)CNC1 [Compound 2]
mode of action at the human GABAA receptor: inhibiting
effect on human GABA receptor-mediated Cl- current: selective potentiation

Reference: US11911364B2, “Positive allosteric modulators of GABAA receptor” (PEPTICOM LTD., priority 2018, dated 2024)
